{"source": "patent US8809352B2", "about": "“Sulfonamides as inhibitors of Bcl-2 family proteins for the treatments of cancer” (Novartis AG, priority 2009, dated 2014)", "molecular_target": "BCL2 (Homo sapiens, UniProt P10415)", "sequence (P10415 whole entry)": "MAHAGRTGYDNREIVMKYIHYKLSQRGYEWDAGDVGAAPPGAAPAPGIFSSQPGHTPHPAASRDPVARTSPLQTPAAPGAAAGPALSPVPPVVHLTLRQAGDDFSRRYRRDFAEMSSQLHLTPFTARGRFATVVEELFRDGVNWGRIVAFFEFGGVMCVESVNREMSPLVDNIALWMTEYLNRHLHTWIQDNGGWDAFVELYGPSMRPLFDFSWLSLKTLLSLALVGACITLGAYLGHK", "assay": "Biacore SPR solution inhibition assay of BCL-2 binding to peptide derivatized sensor surfaces", "settings": "SPR competition; 56 nM BCL2 pre-equilibrated with compound one hour; biotinylated BAK, BAD and NOXA peptide surfaces; 25° C.", "from_the_text": "The present method includes utility of a Surface plasmon resonance (SPR)-based biosensor (Biacore™ GE Healthcare, Uppsala, Sweden) to characterize BCL-2 inhibitors.\nBiacore™ utilizes the phenomenon of surface plasmon resonance (SPR) to detect and measure binding interactions. In a typical Biacore experiment, one of the interacting molecules (ligand) is immobilized on a flexible dextran matrix while the interacting partner (analyte) is allowed to flow across that surface. A binding interaction results in an increase in mass on the sensor surface and a corresponding direct change in the refractive index of the medium in the vicinity of the sensor surface. Changes in refractive index or signal are recorded in resonance units (R.U.) Signal changes due to association and dissociation of complexes are monitored in a non-invasive manner, continuously and in real-time, the results of which are reported in the form of a sensorgram. The SPR assay is configured to examine solution inhibition of BCL-2 binding to peptide derivatized sensor surfaces to generate […] values as a measure of inhibitor potency.\nBiacore™ A100 (GE Healthcare, Uppsala, Sweden) was used to conduct all experiments reported herein. Sensor surface preparation and all interaction analyses experiments were performed at 25° C. Reagents were purchased from GE Healthcare. Running buffer containing 10 mM Hepes, pH7.4, 150 mM sodium chloride, 1.25 mM Dithiothreitol, 3% Dimethyl sulfoxide and 0.05% polysorbate 20 were utilized throughout all analyses.\nBiotinylated BAK, BAD and NOXA peptides were diluted to 10 nM in running buffer and captured onto a sensor surface pre-derivatized with streptavidin (sensor chip SA) to peptide surface densities in the range 50-100 R.U. Peptide captured surfaces were blocked with 500 μM PEO2-Biotin.\nInteraction analyses were performed by first equilibrating each sample within a 6 point three fold compound dilution series in the range 16 μM to 0.004 nM with 56 nM BCL2 for one hour during instrument start-up procedures. Protein compound mixtures were then injected over each peptide surface in parallel for 60 seconds at a flow-rate of 30 μL/min. 56 nM BCL2 control samples were also prepared and run at regular intervals during the assay. Surface regeneration was performed at the end of each analysis cycle by two 30 second injections of 10 mM Glycine, pH 2.5, 1M Sodium Chloride, 0.05% polysorbate 20. Samples and control compound samples were run in duplicate and controls are also run at regular intervals during the assay to monitor surface and assay performance.\nData analyses are carried out using Biacore™ A100 evaluation software v1.1 to validate assay quality. Binding level report points were used relative to BCL2 control samples to calculate % inhibition values for each compound protein mixture.", "data": [{"compound": "CN(C)CC[C@H](CSc1ccccc1)Nc1ccc(S(=O)(=O)Nc2ncnc3c2CCN(C2CCN(Cc4ccccc4-c4ccc(F)cc4)CC2)C3)cc1S(=O)(=O)C(F)(F)F", "note": "[Example 5, (R)-4-(4-(dimethylamino)-1-(phenylthio)butan-2-ylamino)-N-(7-(1-((4′-fluorobiphenyl-2-yl)methyl)piperidin-4-yl)-5,6,7,8-tetrahydropyrido[3,4-d]pyrimidin-4-yl)-3-(trifluoromethylsulfonyl)benzenesulfonamide]", "values": [{"measurement": "IC50", "value": 25, "unit": "nM"}]}, {"compound": "CN(C)CC[C@H](CSc1ccccc1)Nc1ccc(S(=O)(=O)Nc2ncnc3c2CCN(C2CCN(Cc4ccccc4-c4ccc(Br)cc4)CC2)C3)cc1S(=O)(=O)C(F)(F)F", "note": "[Example 6, (R)-N-(7-(1-((4′-bromobiphenyl-2-yl)methyl)piperidin-4-yl)-5,6,7,8-tetrahydropyrido[3,4-d]pyrimidin-4-yl)-4-(4-(dimethylamino)-1-(phenylthio)butan-2-ylamino)-3-(trifluoromethylsulfonyl)benzenesulfonamide]", "values": [{"measurement": "IC50", "value": 19, "unit": "nM"}]}, {"compound": "CN(C)CC[C@H](CSc1ccccc1)Nc1ccc(S(=O)(=O)Nc2ncnc3c2CCN(C2CCN(Cc4ccccc4Br)CC2)C3)cc1S(=O)(=O)C(F)(F)F", "note": "[Example 7, (R)-N-(7-(1-(2-bromobenzyl)piperidin-4-yl)-5,6,7,8-tetrahydropyrido[3,4-d]pyrimidin-4-yl)-4-(4-(dimethylamino)-1-(phenylthio)butan-2-ylamino)-3-(trifluoromethylsulfonyl)benzenesulfonamide]", "values": [{"measurement": "IC50", "value": 506, "unit": "nM"}]}, {"compound": "CC1(C)CCC(c2ccc(Cl)cc2)=C(CN2CCC(N3CCc4c(ncnc4NS(=O)(=O)c4ccc(N[C@H](CCN5CCOCC5)CSc5ccccc5)c(S(=O)(=O)C(F)(F)F)c4)C3)CC2)C1", "note": "[Example 8]", "values": [{"measurement": "IC50", "value": 76, "unit": "nM"}]}, {"compound": "O=S(=O)(Nc1ncnc2c1CCN(C1CCN(Cc3ccccc3-c3ccc(Cl)cc3)CC1)C2)c1ccc(N[C@H](CCN2CCOCC2)CSc2ccccc2)c(S(=O)(=O)C(F)(F)F)c1", "note": "[Example 9, (R)-N-(7-(1((4′-chlorobiphenyl-2-yl)methyl)piperidin-4-yl)-5,6,7,8-tetrahydropyrido[3,4-d]pyrimidin-4-yl)-4-(4-morpholino-1-(phenylthio)butan-2-ylamino)-3-(trifluoromethylsulfonyl)benzenesulfonamide]", "values": [{"measurement": "IC50", "value": 144, "unit": "nM"}]}, {"compound": "CN(C)CC[C@H](CSc1ccccc1)Nc1ccc(S(=O)(=O)Nc2ncnc3c2CCN(C2CCN(CC4=C(c5ccc(Cl)cc5)CCC(C)(C)C4)CC2)C3)cc1S(=O)(=O)C(F)(F)F", "note": "[Example 10, (R)-N-(7-(1-((2-(4-chlorophenyl)-5,5-dimethylcyclohex-1-enyl)methyl)piperidin-4-yl)-5,6,7,8-tetrahydropyrido[3,4-d]pyrimidin-4-yl)-4-(4-(dimethylamino)-1-(phenylthio)butan-2-ylamino)-3-(trifluoromethylsulfonyl)benzenesulfonamide]", "values": [{"measurement": "IC50", "value": 31, "unit": "nM"}]}, {"compound": "CN(C)CC[C@H](CSc1ccccc1)Nc1ccc(S(=O)(=O)Nc2ncnc3c2CCN(C2CCN(Cc4ccccc4-c4ccc(Cl)cc4)CC2)C3)cc1S(=O)(=O)C(F)(F)F", "note": "[Example 11, (R)-N-(7-(1((4′-chlorobiphenyl-2-yl)methyl)piperidin-4-yl)-5,6,7,8-tetrahydropyrido[3,4-d]pyrimidin-4-yl)-4-(4-(dimethylamino)-1-(phenylthio)butan-2-ylamino)-3-(trifluoromethylsulfonyl)benzenesulfonamide]", "values": [{"measurement": "IC50", "value": 20, "unit": "nM"}]}, {"compound": "CN(C)CC[C@H](CSc1ccccc1)Nc1c(F)cc(S(=O)(=O)Nc2ncnc3c2CCN(C2CCN(Cc4ccccc4-c4ccc(Cl)cc4)CC2)C3)cc1F", "note": "[Example 12, (R)-N-(7-(1-((4′-chlorobiphenyl-2-yl)methyl)piperidin-4-yl)-5,6,7,8-tetrahydropyrido[3,4-d]pyrimidin-4-yl)-4-(4-(dimethylamino)-1-(phenylthio)butan-2-ylamino)-3,5-difluorobenzenesulfonamide]", "values": [{"measurement": "IC50", "value": 3060, "unit": "nM"}]}, {"compound": "CC[C@H](CSc1ccccc1)Nc1ccc(S(=O)(=O)Nc2ncnc3c2CCN(C2CCN(Cc4ccccc4-c4ccc(Cl)cc4)CC2)C3)cc1S(=O)(=O)C(F)(F)F", "note": "[Example 13]", "values": [{"measurement": "IC50", "value": 502, "unit": "nM"}]}, {"compound": "CC(=O)N(CCSc1ccccc1)c1ccc(S(=O)(=O)Nc2ncnc3c2CCN(C2CCN(Cc4cc(F)ccc4-c4ccc(Cl)cc4)CC2)C3)cc1S(=O)(=O)C(F)(F)F", "note": "[Example 15]", "values": [{"measurement": "IC50", "value": 757, "unit": "nM"}]}, {"compound": "CC1(C)CCC(CN2CCC(N3CCc4c(ncnc4NS(=O)(=O)c4ccc(N[C@H](CCN5CCOCC5)CSc5ccccc5)c(S(=O)(=O)C(F)(F)F)c4)C3)CC2)=C(c2ccc(Cl)cc2)C1", "note": "[Example 16, (R)-N-(7-(1-((2-(4-chlorophenol)-4,4-dimethylcyclohex-1-enyl)methyl)piperidin-4-yl)-5,6,7,8-tetrahydropyrido[3,4-d]pyrimidin-4-yl)-4-(4-morpholino-1-(phenylthio)butan-2-ylamino)-3-(trifluoromethylsulfonyl)benzenesulfonamide]", "values": [{"measurement": "IC50", "value": 41, "unit": "nM"}]}, {"compound": "CN(C)CC[C@H](CSc1ccccc1)Nc1ccc(S(=O)(=O)Nc2ncnc3c2CCN(C2CCN(CC4=C(c5ccc(Cl)cc5)CC(C)(C)CC4)CC2)C3)cc1S(=O)(=O)C(F)(F)F", "note": "[Example 17, (R)-N-(7-(1-((2-(4-chlorophenyl)-4,4-dimethylcyclohex-1-enyl)methyl)piperidin-4-yl)-5,6,7,8-tetrahydropyrido[3,4-d]pyrimidin-4-yl)-4-(4-(dimethylamino)-1-(phenylthio)butan-2-ylamino)-3-(trifluoromethylsulfonyl)benzenesulfonamide]", "values": [{"measurement": "IC50", "value": 22, "unit": "nM"}]}, {"compound": "CN(C)CC[C@H](CSc1ccccc1)Nc1ccc(S(=O)(=O)Nc2ncnc3c2CCN(C2CCN(Cc4ccc(F)cc4-c4ccc(Cl)cc4)CC2)C3)cc1S(=O)(=O)C(F)(F)F", "note": "[Example 19, (R)-N-(7-(1-((4′-chloro-5-fluorobiphenyl-2-yl)methyl)piperidin-4-yl)-5,6,7,8-tetrahydropyrido[3,4-d]pyrimidin-4-yl)-4-(4-(dimethylamino)-1-(phenylthio)butan-2-ylamino)-3-(trifluoromethylsulfonyl)benzenesulfonamide]", "values": [{"measurement": "IC50", "value": 35, "unit": "nM"}]}, {"compound": "CN(C)CC[C@H](CSc1ccccc1)Nc1ccc(S(=O)(=O)Nc2ncnc3c2CCN(C2CCN(Cc4cc(F)ccc4-c4ccc(Cl)cc4)CC2)C3)cc1S(=O)(=O)C(F)(F)F", "note": "[Example 20]", "values": [{"measurement": "IC50", "value": 22, "unit": "nM"}]}, {"compound": "CN(C)CC[C@H](CSc1ccccc1)Nc1ccc(S(=O)(=O)Nc2ncnc3c2CCN(C2CCN(Cc4c(F)cccc4-c4ccc(Cl)cc4)CC2)C3)cc1S(=O)(=O)C(F)(F)F", "note": "[Example 21, (R)-N—-(7-(1-((4′-chloro-3-fluorobiphenyl-2-yl)methyl)piperidin-4-yl)-5,6,7,8-tetrahydropyrido[3,4-d]pyrimidin-4-yl)-4-(4-(dimethylamino)-1-(phenylthio)butan-2-ylamino)-3-(trifluoromethylsulfonyl)benzenesulfonamide]", "values": [{"measurement": "IC50", "value": 30, "unit": "nM"}]}, {"compound": "CN(C)C(=O)C[C@H](CSc1ccccc1)Nc1ccc(S(=O)(=O)Nc2ncnc3c2CCN(C2CCN(Cc4ccccc4-c4ccc(Cl)cc4)CC2)C3)cc1[N+](=O)[O-]", "note": "[Example 22, (R)-3-(4-(N-(7-(1-((4′-chlorobiphenyl-2-yl)methyl)piperidin-4-yl)-5,6,7,8-tetrahydropyrido[3,4-d]pyrimidin-4-yl)sulfamoyl)-2-nitrophenylamino)-N,N-dimethyl-4-(phenylthio)butanamide]", "values": [{"measurement": "IC50", "value": 75, "unit": "nM"}]}, {"compound": "CCN1CCN(CC[C@H](CSc2ccccc2)Nc2ccc(S(=O)(=O)Nc3ncnc4c3CCN(C3CCN(Cc5ccccc5-c5ccc(Cl)cc5)CC3)C4)cc2S(=O)(=O)C(F)(F)F)CC1", "note": "[Example 23, N-{7-[1-(4′-Chloro-biphenyl-2-ylmethyl)-piperidin-4-yl]-5,6,7,8-tetrahydro-pyrido[3,4-d]pyrimidin-4-yl}-4[(R)-3-(4-ethyl-piperazin-1-yl)-1-phenylsulfanylmethyl-propylamino]-3-trifluoromethanesulfonyl-benzenesulfonamide]", "values": [{"measurement": "IC50", "value": 51, "unit": "nM"}]}, {"compound": "CC(C1=C(c2ccc(Cl)cc2)CC(C)(C)CC1)N1CCC(N2CCc3c(ncnc3NS(=O)(=O)c3ccc(N[C@H](CCN4CCOCC4)CSc4ccccc4)c(S(=O)(=O)C(F)(F)F)c3)C2)CC1", "note": "(stereo partly shown) [Example 24]", "values": [{"measurement": "IC50", "value": 89, "unit": "nM"}]}, {"compound": "CN(C)CC[C@H](COCc1ccccc1)Nc1ccc(S(=O)(=O)Nc2ncnc3c2CCN(C2CCN(Cc4ccccc4-c4ccc(Cl)cc4)CC2)C3)cc1S(=O)(=O)C(F)(F)F", "note": "[Example 25, 4-((R)-1-Benzyloxymethyl-3-dimethylamino-propylamino)-N-{7-[1-(4′-chloro-biphenyl-2-ylmethyl)-piperidin-4-yl]-5,6,7,8-tetrahydro-pyrido[3,4-d]pyrimidin-4-yl}-3-trifluoromethanesulfonyl-benzenesulfonamide]", "values": [{"measurement": "IC50", "value": 142, "unit": "nM"}]}]}
